Laboratory results reported in ChEMBL document CHEMBL6083234, “Discovery of novel 1,4-dicarbonylthiosemicarbazides as DNA gyrase inhibitors for the treatment of MRSA infection” (Eur J Med Chem, 2024).
Values after ≈ are worked out from the molar mass of the structure shown.

What was measured:
Staphylococcus aureus [1] = test: Antibacterial activity against Staphylococcus aureus ATCC 29213 assessed as inhibition of bacterial growth incubated for 18 to 24 hrs by broth microdilution method; assay type: functional; conditions: time 18-24 hrs
[2] = Selectivity index, ratio of CC50 for cytotoxicity against human HepG2 cells to MIC for antibacterial activity against Staphylococcus aureus ATCC 29213; assay type: toxicity, cell-based; conditions: read-out: Selectivity Index
[3] = Cytotoxicity against HUVEC cells assessed as reduction in cell viability incubated for 48 hrs by CCK8 assay; assay type: toxicity, cell-based; conditions: human
DNA gyrase = DNA gyrase (Staphylococcus aureus, UniProt P0A0K8+P20831); test: Inhibition of Staphylococcus aureus DNA gyrase ATP hydrolysis activity using pBR322 DNA as substrate incubated for 30 mins in presence of ATP by ADP-Glo reagent based assay; assay type: protein-complex assay
[4] = Cytotoxicity against human HepG2 cells assessed as reduction in cell viability incubated for 48 hrs by CCK8 assay; assay type: toxicity, cell-based
[5] = Selectivity index, ratio of CC50 for cytotoxicity against HUVEC cells to MIC for antibacterial activity against Staphylococcus aureus ATCC 29213; assay type: toxicity, cell-based; conditions: human, read-out: Selectivity Index
Staphylococcus aureus [6] = test: Antibacterial activity against methicillin-resistant Staphylococcus aureus (15 strains) assessed as inhibition of bacterial growth incubated for 18 to 24 hrs by broth microdilution method; assay type: functional; conditions: time 18-24 hrs
Staphylococcus aureus [7] = test: Antibacterial activity against methicillin-resistant Staphylococcus aureus clinical isolate 16-1 infected in kunming mouse model assessed as survival rate at 10 mg/kg, iv pre-infected with bacteria for 10 mins followed by compound administration and measured for 7 days (reference value: 0 %); assay type: functional; conditions: 168 h, time 7 day
Staphylococcus aureus [8] = test: Antibacterial activity against methicillin-resistant Staphylococcus aureus clinical isolate 16-1 infected in kunming mouse model assessed as survival rate at 3.5 mg/kg, iv pre-infected with bacteria for 10 mins followed by compound administration and measured for 7 days (reference value: 0 %); assay type: functional; conditions: 168 h, time 7 day
Staphylococcus aureus [9] = test: Antibacterial activity against methicillin-resistant Staphylococcus aureus clinical isolate 16-1 infected in kunming mouse model assessed as survival rate at 5 mg/kg, iv pre-infected with bacteria for 10 mins followed by compound administration and measured for 7 days (reference value: 0 %); assay type: functional; conditions: 168 h, time 7 day
Staphylococcus aureus [10] = test: Antibacterial activity against methicillin-resistant Staphylococcus aureus clinical isolate 16-1 infected in kunming mouse model assessed as survival rate at 7 mg/kg, iv pre-infected with bacteria for 10 mins followed by compound administration and measured for 7 days (reference value: 0 %); assay type: functional; conditions: 168 h, time 7 day

DNA gyrase, sequence (P0A0K8 whole entry): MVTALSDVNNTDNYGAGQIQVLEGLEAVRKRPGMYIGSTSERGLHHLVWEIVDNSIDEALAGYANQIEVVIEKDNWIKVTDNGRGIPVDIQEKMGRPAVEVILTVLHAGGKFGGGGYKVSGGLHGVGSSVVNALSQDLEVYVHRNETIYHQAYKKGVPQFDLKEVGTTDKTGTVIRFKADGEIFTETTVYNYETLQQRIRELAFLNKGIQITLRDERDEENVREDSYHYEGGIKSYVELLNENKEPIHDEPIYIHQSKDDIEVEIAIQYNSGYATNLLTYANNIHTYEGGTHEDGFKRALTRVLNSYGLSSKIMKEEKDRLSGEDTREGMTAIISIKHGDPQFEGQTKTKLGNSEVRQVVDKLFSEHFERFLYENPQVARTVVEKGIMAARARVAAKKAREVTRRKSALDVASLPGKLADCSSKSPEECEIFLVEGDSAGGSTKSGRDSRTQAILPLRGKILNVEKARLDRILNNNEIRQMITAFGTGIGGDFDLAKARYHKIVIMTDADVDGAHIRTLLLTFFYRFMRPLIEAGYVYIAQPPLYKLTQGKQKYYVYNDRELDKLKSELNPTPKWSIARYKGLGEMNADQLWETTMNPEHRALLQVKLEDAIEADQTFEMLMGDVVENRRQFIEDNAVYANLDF
DNA gyrase, sequence (P20831 whole entry): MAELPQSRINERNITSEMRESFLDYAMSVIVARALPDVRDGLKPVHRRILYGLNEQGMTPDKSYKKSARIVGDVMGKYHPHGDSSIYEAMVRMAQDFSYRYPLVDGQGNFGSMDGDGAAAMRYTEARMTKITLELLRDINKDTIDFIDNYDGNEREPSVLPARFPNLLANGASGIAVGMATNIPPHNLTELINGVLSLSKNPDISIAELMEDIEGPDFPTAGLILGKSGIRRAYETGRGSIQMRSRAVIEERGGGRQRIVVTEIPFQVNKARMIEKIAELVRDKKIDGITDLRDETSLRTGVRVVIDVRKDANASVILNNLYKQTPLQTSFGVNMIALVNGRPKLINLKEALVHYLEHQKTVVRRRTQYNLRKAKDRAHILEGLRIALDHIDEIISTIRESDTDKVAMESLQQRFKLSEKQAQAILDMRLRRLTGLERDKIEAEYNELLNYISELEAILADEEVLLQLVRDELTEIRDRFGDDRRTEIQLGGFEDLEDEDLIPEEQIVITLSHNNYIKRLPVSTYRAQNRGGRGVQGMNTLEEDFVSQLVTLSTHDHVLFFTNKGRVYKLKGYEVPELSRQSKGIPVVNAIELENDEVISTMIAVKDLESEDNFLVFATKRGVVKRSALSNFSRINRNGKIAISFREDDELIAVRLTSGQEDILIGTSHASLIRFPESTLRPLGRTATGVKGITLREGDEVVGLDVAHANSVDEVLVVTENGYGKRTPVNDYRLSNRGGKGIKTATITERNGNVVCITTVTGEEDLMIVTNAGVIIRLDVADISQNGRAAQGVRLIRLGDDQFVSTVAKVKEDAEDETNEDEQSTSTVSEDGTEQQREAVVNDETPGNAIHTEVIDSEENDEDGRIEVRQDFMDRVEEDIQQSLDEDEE

| SMILES | MIC (Staphylococcus aureus [1]) | other results |
| --- | --- | --- |
| CCCCCOc1ccc(C(=O)NNC(=S)NC(=O)CC)cc1 | 1.56 µg/mL | – |
| CC(=O)NC(=S)NNC(=O)c1ccccc1 | 50 µg/mL | – |
| CC(=O)NC(=S)NNC(=O)c1ccccc1O | 50 µg/mL | – |
| CCCCCCOc1ccc(C(=O)NNC(=O)NC(C)=O)cc1 | 100 µg/mL | – |
| CCCCCOc1ccc(C(=O)NNC(=S)NC(=O)c2ccc(C(=O)OC)cc2)cc1 | > 100 µg/mL | – |
| CCCCCOc1ccc(C(=O)NNC(=S)NC(C)=O)nc1 | 25 µg/mL | – |
| COCCCOc1ccc(C(=O)NNC(=S)NC(C)=O)cc1 | > 100 µg/mL | – |
| CCCCCOc1ccc(C(=O)NNC(=S)NC(=O)CCC)cc1 | 12.5 µg/mL | – |
| CC(=O)NC(=S)NNC(=O)c1ccc(N2CCOCC2)cc1 | 100 µg/mL | – |
| CC(=O)NC(=S)NNC(=O)c1ccc(Oc2ccccc2)cc1 | 3.12 µg/mL | – |
| CCC(=O)NC(=S)NNC(=O)c1ccc(OC)cc1 | 25 µg/mL | – |
| CCCCCOc1ccc(CC(=O)NNC(=S)NC(C)=O)cc1 | 25 µg/mL | – |
| CC(=O)NC(=S)NNC(=O)c1ccc([N+](=O)[O-])cc1 | > 100 µg/mL | – |
| CCCCCCOc1ccc(C(=O)NN(C)C(=S)NC(C)=O)cc1 | > 100 µg/mL | – |
| CCCCCCOc1ccc(C(=O)NNC(N)=S)cc1 | > 100 µg/mL | – |
| CCC1CCC(c2ccc(C(=O)NNC(=S)NC(C)=O)cc2)CC1 (centres undefined) | 0.58 µM | selectivity ratio [2]: 0.05; CC50 at 48 h [3]: 67 nM; IC50 (DNA gyrase): 230 nM; CC50 at 48 h [4]: 26 nM; selectivity ratio [5]: 0.12 |
| CCCCCOc1ccc(C(=O)NNC(=S)NC(=O)c2ccc(C(=O)O)cc2)cc1 | > 100 µg/mL | – |
| CCCCCOc1ccc(C(=O)NNC(=S)NC(=O)CCC(=O)OC)cc1 | 12.5 µg/mL | – |
| CC(=O)NC(=S)NNC(=O)c1ccc(C2CCCCC2)cc1 | 1.22 µM | selectivity ratio [2]: 0.1; CC50 at 48 h [3]: 790 nM; IC50 (DNA gyrase): 1890 nM; CC50 at 48 h [4]: 120 nM; selectivity ratio [5]: 0.65 |
| CCCCOc1ccc(C(=O)NNC(=S)NC(C)=O)cc1 | 1.56 µg/mL | – |
| CCCCCOc1ccc(C(=O)NNC(=S)NC(C)=O)cc1OCCCCC | 6.25 µg/mL | – |
| CCC(=O)NC(=S)NNC(=O)c1ccccc1O | 50 µg/mL | – |
| Cc1ccc(C(=O)NNC(=S)NC(=O)CC(C)C)cc1 | 12.5 µg/mL | – |
| CCCCCCOc1ccc(C(=O)NNC(=S)NC(C)=O)cc1 | 1.56 µg/mL | IC50 (DNA gyrase): 1010 nM |
| CCCCCOc1ccc(C(=O)NNC(=S)NC(C)=O)c(C)c1 | 3.12 µg/mL | – |
| CCCCCOc1ccc(C(=O)NNC(=S)NC(=O)C2CCCC2)cc1 | 50 µg/mL | – |
| CC(=O)NC(=S)NNC(=O)c1ccc(-c2ccccc2)cc1 | 1.56 µg/mL | – |
| CN[C@H](CC(C)C)C(=O)N[C@H]1C(=O)N[C@@H](CC(N)=O)C(=O)N[C@H]2C(=O)N[C@H]3C(=O)N[C@H](C(=O)N[C@H](C(=O)O)c4cc(O)cc(O)c4-c4cc3ccc4O)[C@H](O)c3ccc(c(Cl)c3)Oc3cc2cc(c3O[C@@H]2O[C@H](CO)[C@@H](O)[C@H](O)[C@H]2O[C@H]2C[C@](C)(N)[C@H](O)[C@H](C)O2)Oc2ccc(cc2Cl)[C@H]1O [VANCOMYCIN] | 1.56 µg/mL | MIC (Staphylococcus aureus [6]): 0.25 µg/mL (≈ 0.173 µM); survival at 10 mg/kg (Staphylococcus aureus [7]): 60%; survival at 3.5 mg/kg (Staphylococcus aureus [8]): 20%; survival at 5 mg/kg (Staphylococcus aureus [9]): 50%; survival at 7 mg/kg (Staphylococcus aureus [10]): 50% |
